Measurements: paper PMC5218480 (PLoS ONE, 2017)

System: MV-4-11 cells
Assay: Gene expression microarray analysis (Affymetrix PrimeView) and GSEA
Type: cell-based, human
Parameters: RFU PODN (11730768_x_at) / Fold change /veh PODN (11730768_x_at) / RFU LINC00158 (11744669_a_at) / Fold change /veh LINC00158 (11744669_a_at) / RFU DUSP10 (11751237_a_at) / Fold change /veh DUSP10 (11751237_a_at) / RFU ID3 (11757404_x_at) / Fold change /veh ID3 (11757404_x_at) / RFU PLEKHG5 (11737974_s_at) / Fold change /veh PLEKHG5 (11737974_s_at) / RFU LRRC4B (11730491_at) / Fold change /veh LRRC4B (11730491_at) / RFU GIMAP4 (11747438_a_at) / Fold change /veh GIMAP4 (11747438_a_at) / RFU KRT8 (11758183_x_at) / Fold change /veh KRT8 (11758183_x_at) / RFU CNN1 (11734310_a_at) / Fold change /veh CNN1 (11734310_a_at) / RFU VPS37D (11726825_at) / Fold change /veh VPS37D (11726825_at) / RFU C10orf10 (11716522_x_at) / Fold change /veh C10orf10 (11716522_x_at) / RFU KIR2DL2 /// KIR2DL4 /// KIR2DL5A /// KIR2DL5B /// KIR2DS1 /// KIR2DS2 /// KIR2DS3 /// KIR2DS4 /// KIR3DL3 /// KIR3DL3 /// KIR3DS1 (11738374_at) / Fold change /veh KIR2DL2 /// KIR2DL4 /// KIR2DL5A /// KIR2DL5B /// KIR2DS1 /// KIR2DS2 /// KIR2DS3 /// KIR2DS4 /// KIR3DL3 /// KIR3DL3 /// KIR3DS1 (11738374_at) / RFU C1QL1 (11718748_at) / Fold change /veh C1QL1 (11718748_at) / RFU TMPRSS4 (11747572_a_at) / Fold change /veh TMPRSS4 (11747572_a_at) / RFU HAMP (11756126_x_at) / Fold change /veh HAMP (11756126_x_at) / RFU RNFT2 (11725882_a_at) / Fold change /veh RNFT2 (11725882_a_at) / RFU NR4A2 (11747474_a_at) / Fold change /veh NR4A2 (11747474_a_at) / RFU ABCC12 (11746883_a_at) / Fold change /veh ABCC12 (11746883_a_at) / RFU TMEM136 (11760407_x_at) / Fold change /veh TMEM136 (11760407_x_at) / RFU CLDN22 /// WWC2 (11732394_at) / Fold change /veh CLDN22 /// WWC2 (11732394_at) / RFU HLA-DPB1 (11760878_x_at) / Fold change /veh HLA-DPB1 (11760878_x_at) / RFU SPINT1 (11716480_a_at) / Fold change /veh SPINT1 (11716480_a_at) / RFU GAP43 (11754022_s_at) / Fold change /veh GAP43 (11754022_s_at) / RFU A4GNT (11735810_at) / Fold change /veh A4GNT (11735810_at) / RFU PRB3 (11715151_x_at) / Fold change /veh PRB3 (11715151_x_at) / RFU TUBB4B (11761932_at) / Fold change /veh TUBB4B (11761932_at) / RFU CAPN14 (11732068_a_at) / Fold change /veh CAPN14 (11732068_a_at) / RFU TMCC2 (11721928_a_at) / Fold change /veh TMCC2 (11721928_a_at) / RFU IRGQ (11745062_a_at) / Fold change /veh IRGQ (11745062_a_at) / RFU FAM174B (11720279_a_at) / Fold change /veh FAM174B (11720279_a_at) / RFU TMPRSS4 (11748680_a_at) / Fold change /veh TMPRSS4 (11748680_a_at) / RFU FAM212B (11763350_a_at) / Fold change /veh FAM212B (11763350_a_at) / RFU PLEKHG5 (11743358_a_at) / Fold change /veh PLEKHG5 (11743358_a_at) / RFU ZSCAN30 (11745921_a_at) / Fold change /veh ZSCAN30 (11745921_a_at) / RFU CMKLR1 (11741424_a_at) / Fold change /veh CMKLR1 (11741424_a_at) / RFU LOC101060620 /// MAPK8IP1 (11723275_at) / Fold change /veh LOC101060620 /// MAPK8IP1 (11723275_at) / RFU SPTSSB (11747773_x_at) / Fold change /veh SPTSSB (11747773_x_at) / RFU PRSS12 (11739890_at) / Fold change /veh PRSS12 (11739890_at) / RFU BIN1 (11741810_x_at) / Fold change /veh BIN1 (11741810_x_at) / RFU WNT11 (11732464_a_at) / Fold change /veh WNT11 (11732464_a_at) / RFU C10orf10 (11716521_a_at) / Fold change /veh C10orf10 (11716521_a_at) / RFU C5orf56 (11738089_at) / Fold change /veh C5orf56 (11738089_at) / RFU CYB561 (11721691_x_at) / Fold change /veh CYB561 (11721691_x_at) / RFU ANKRD19P (11752326_a_at) / Fold change /veh ANKRD19P (11752326_a_at) / RFU OR2T12 /// OR2T33 /// OR2T8 (11738714_s_at) / Fold change /veh OR2T12 /// OR2T33 /// OR2T8 (11738714_s_at) / RFU VCAN (11748164_a_at) / Fold change /veh VCAN (11748164_a_at) / RFU JSRP1 (11732532_at) / Fold change /veh JSRP1 (11732532_at) / RFU KRTAP10-11 (11738290_x_at) / Fold change /veh KRTAP10-11 (11738290_x_at) / RFU MYO3A (11730013_a_at) / Fold change /veh MYO3A (11730013_a_at) / RFU EBF3 (11725865_a_at) / Fold change /veh EBF3 (11725865_a_at) / RFU CAMK2N1 (11719241_x_at) / Fold change /veh CAMK2N1 (11719241_x_at) / RFU C5orf56 (11738088_a_at) / Fold change /veh C5orf56 (11738088_a_at) / RFU OLFML3 (11715873_a_at) / Fold change /veh OLFML3 (11715873_a_at) / RFU LOC100653217 /// NTM (11731650_a_at) / Fold change /veh LOC100653217 /// NTM (11731650_a_at) / RFU MAPK11 (11762145_a_at) / Fold change /veh MAPK11 (11762145_a_at) / RFU FIZ1 (11724087_x_at) / Fold change /veh FIZ1 (11724087_x_at) / RFU OASL (11726364_x_at) / Fold change /veh OASL (11726364_x_at) / RFU SOX15 (11748057_x_at) / Fold change /veh SOX15 (11748057_x_at) / RFU CD79A (11719716_a_at) / Fold change /veh CD79A (11719716_a_at) / RFU HIST1H1D (11736915_at) / Fold change /veh HIST1H1D (11736915_at) / RFU CASKIN2 (11723855_a_at) / Fold change /veh CASKIN2 (11723855_a_at) / RFU LOC730098 (11760151_x_at) / Fold change /veh LOC730098 (11760151_x_at) / RFU OR4N2 (11742367_at) / Fold change /veh OR4N2 (11742367_at) / RFU PRRT2 (11749266_a_at) / Fold change /veh PRRT2 (11749266_a_at) / RFU SNX32 (11753110_a_at) / Fold change /veh SNX32 (11753110_a_at) / RFU CDHR5 (11726645_a_at) / Fold change /veh CDHR5 (11726645_a_at) / RFU RCAN1 (11760418_a_at) / Fold change /veh RCAN1 (11760418_a_at) / RFU FAM167A (11723789_a_at) / Fold change /veh FAM167A (11723789_a_at) / RFU FAM26E (11764081_at) / Fold change /veh FAM26E (11764081_at) / RFU ISYNA1 (11749810_s_at) / Fold change /veh ISYNA1 (11749810_s_at) / RFU ACY1 (11761880_at) / Fold change /veh ACY1 (11761880_at) / RFU 11764098_at / Fold change /veh 11764098_at / RFU SAMD14 (11745864_x_at) / Fold change /veh SAMD14 (11745864_x_at) / RFU NPB (11741838_a_at) / Fold change /veh NPB (11741838_a_at) / RFU TMPRSS6 (11731388_a_at) / Fold change /veh TMPRSS6 (11731388_a_at) / RFU KRTAP10-2 (11738614_at) / Fold change /veh KRTAP10-2 (11738614_at) / RFU ARHGAP8 /// PRR5-ARHGAP8 (11727945_x_at) / Fold change /veh ARHGAP8 /// PRR5-ARHGAP8 (11727945_x_at) / RFU KRTAP5-7 /// NADSYN1 (11734609_at) / Fold change /veh KRTAP5-7 /// NADSYN1 (11734609_at) / RFU RASL12 (11751679_a_at) / Fold change /veh RASL12 (11751679_a_at) / RFU CDKN2B (11736163_a_at) / Fold change /veh CDKN2B (11736163_a_at) / RFU PRF1 (11729649_at) / Fold change /veh PRF1 (11729649_at) / RFU, ZNF638 /// ZNF638-IT1 / Fold change vs veh, ZNF638 /// ZNF638-IT1 / RFU, PANK3 / Fold change vs veh, PANK3 / RFU, SH3YL1 / Fold change vs veh, SH3YL1 / RFU, ZEB2 / Fold change vs veh, ZEB2 / RFU, NRIP1 / Fold change vs veh, NRIP1 / RFU, PTTG1IP / Fold change vs veh, PTTG1IP / RFU, CAPN2 / Fold change vs veh, CAPN2 / RFU, MED14 / Fold change vs veh, MED14 / RFU, SNORA58 / Fold change vs veh, SNORA58 / RFU, C1orf63 / Fold change vs veh, C1orf63 / RFU, LRRFIP1 / Fold change vs veh, LRRFIP1 / RFU, NDUFAF7 / Fold change vs veh, NDUFAF7 / RFU, SLC12A2 / Fold change vs veh, SLC12A2 / RFU, IBTK / Fold change vs veh, IBTK / RFU, ESF1 / Fold change vs veh, ESF1 / Fold change vs veh, TMEM50B / RFU, TAOK1 / Fold change vs veh, TAOK1 / RFU, ACBD3 / Fold change vs veh, ACBD3 / RFU, TMA16 / Fold change vs veh, TMA16 / RFU, RWDD3 / Fold change vs veh, RWDD3 / RFU, BCAT1 / Fold change vs veh, BCAT1 / RFU, EDEM3 / Fold change vs veh, EDEM3 / RFU, TMEM33 / Fold change vs veh, TMEM33 / RFU, WDR75 / Fold change vs veh, WDR75 / RFU, AHCTF1 / Fold change vs veh, AHCTF1 / RFU, TFRC / Fold change vs veh, TFRC / RFU, ZDHHC17 / Fold change vs veh, ZDHHC17 / RFU, NOM1 / Fold change vs veh, NOM1 / RFU, ARL8B / Fold change vs veh, ARL8B / RFU, ZBTB11 / Fold change vs veh, ZBTB11 / RFU, TAMM41 / Fold change vs veh, TAMM41 / RFU, KIAA1704 /// LOC100996395 / Fold change vs veh, KIAA1704 /// LOC100996395 / RFU, ING1 / Fold change vs veh, ING1 / RFU, TRMT61B / Fold change vs veh, TRMT61B / RFU, FUBP3 / Fold change vs veh, FUBP3 / RFU, TP53 / Fold change vs veh, TP53 / RFU, TNKS2 / Fold change vs veh, TNKS2 / RFU, ZFP14 / Fold change vs veh, ZFP14 / RFU, ACTR2 / Fold change vs veh, ACTR2 / RFU, PPP3R1 / Fold change vs veh, PPP3R1 / RFU, PIK3R1 / Fold change vs veh, PIK3R1 / RFU, HNRNPA1 / Fold change vs veh, HNRNPA1 / RFU, RNF170 / Fold change vs veh, RNF170 / RFU, ZNF28 / Fold change vs veh, ZNF28 / RFU, RNGTT / Fold change vs veh, RNGTT / RFU, OGT / Fold change vs veh, OGT / RFU, BRD1 / Fold change vs veh, BRD1 / RFU, MARS / Fold change vs veh, MARS / RFU, ZNF655 / Fold change vs veh, ZNF655 / RFU, FAHD1 / Fold change vs veh, FAHD1 / RFU, BDP1 / Fold change vs veh, BDP1 / RFU, LRRCC1 / Fold change vs veh, LRRCC1 / RFU, ARID1A / Fold change vs veh, ARID1A / RFU, ZNF146 / Fold change vs veh, ZNF146 / RFU, ZNF330 / Fold change vs veh, ZNF330 / RFU, GPN3 / Fold change vs veh, GPN3 / RFU, C9orf123 / Fold change vs veh, C9orf123 / RFU, N4BP2L2 / Fold change vs veh, N4BP2L2 / RFU, ARFIP1 / Fold change vs veh, ARFIP1 / RFU, FAM179B / Fold change vs veh, FAM179B / RFU, BCL10 / Fold change vs veh, BCL10 / RFU, UHRF1BP1L / Fold change vs veh, UHRF1BP1L / RFU, BET1 / Fold change vs veh, BET1 / RFU, CNOT2 / Fold change vs veh, CNOT2 / RFU, ZNF268 / Fold change vs veh, ZNF268 / Fold change vs veh, ZNF507 / RFU, DGCR2 / Fold change vs veh, DGCR2 / RFU, WDSUB1 / Fold change vs veh, WDSUB1 / Fold change vs veh, HSP90B1 /// MIR3652 / RFU, ADSS / Fold change vs veh, ADSS / RFU, GK / Fold change vs veh, GK / RFU, ZNF148 / Fold change vs veh, ZNF148 / RFU, TAF9 / Fold change vs veh, TAF9 / RFU, SLC1A5 / Fold change vs veh, SLC1A5 / RFU, SLMO2 / Fold change vs veh, SLMO2 / RFU, ABCC4 / Fold change vs veh, ABCC4 / RFU, LOC101060439 /// RAP1B / Fold change vs veh, LOC101060439 /// RAP1B / RFU, RFX7 / Fold change vs veh, RFX7 / RFU, GTPBP10 / Fold change vs veh, GTPBP10 / RFU, CNEP1R1 / Fold change vs veh, CNEP1R1 / RFU, BIVM-ERCC5 /// ERCC5 / Fold change vs veh, BIVM-ERCC5 /// ERCC5 / RFU, ILF3 / Fold change vs veh, ILF3 / RFU 11762660_at / Fold change /veh 11762660_at / RFU VCAN (11757783_s_at) / Fold change /veh VCAN (11757783_s_at) / RFU DDX43 (11728927_at) / Fold change /veh DDX43 (11728927_at) / RFU KRT8 (11758188_x_at) / Fold change /veh KRT8 (11758188_x_at) / RFU NKD1 (11759106_at) / Fold change /veh NKD1 (11759106_at) / RFU SRD5A1 (11742802_a_at) / Fold change /veh SRD5A1 (11742802_a_at) / RFU TPSAB1 /// TPSB2 (11721975_s_at) / Fold change /veh TPSAB1 /// TPSB2 (11721975_s_at) / RFU GSTM3 (11746129_a_at) / Fold change /veh GSTM3 (11746129_a_at) / RFU IL23R (11737362_x_at) / Fold change /veh IL23R (11737362_x_at) / RFU TMEM51 (11727254_a_at) / Fold change /veh TMEM51 (11727254_a_at) / RFU PIWIL2 (11732686_x_at) / Fold change /veh PIWIL2 (11732686_x_at) / RFU ORM1 (11744905_x_at) / Fold change /veh ORM1 (11744905_x_at) / RFU CCDC152 (11743942_at) / Fold change /veh CCDC152 (11743942_at) / RFU ECM1 (11717891_a_at) / Fold change /veh ECM1 (11717891_a_at) / RFU IL23R (11748794_a_at) / Fold change /veh IL23R (11748794_a_at) / RFU TNFAIP8L3 (11732012_x_at) / Fold change /veh TNFAIP8L3 (11732012_x_at) / RFU MBOAT4 (11741988_at) / Fold change /veh MBOAT4 (11741988_at) / RFU 11764193_at / Fold change /veh 11764193_at / RFU TMEM53 (11763286_at) / Fold change /veh TMEM53 (11763286_at) / RFU MAGEB2 (11727129_at) / Fold change /veh MAGEB2 (11727129_at) / RFU TMEM200A (11744735_a_at) / Fold change /veh TMEM200A (11744735_a_at) / RFU CCDC152 (11751479_a_at) / Fold change /veh CCDC152 (11751479_a_at) / RFU FAM211A (11726209_a_at) / Fold change /veh FAM211A (11726209_a_at) / RFU RGS16 (11746705_a_at) / Fold change /veh RGS16 (11746705_a_at) / RFU VCAN (11755009_s_at) / Fold change /veh VCAN (11755009_s_at) / RFU RHOB (11743442_s_at) / Fold change /veh RHOB (11743442_s_at) / RFU RGS16 (11720943_a_at) / Fold change /veh RGS16 (11720943_a_at) / RFU RGS16 (11720944_at) / Fold change /veh RGS16 (11720944_at) / RFU, VPS4B / Fold change vs veh, VPS4B / RFU, CREB1 / Fold change vs veh, CREB1 / RFU, DNAJC13 / Fold change vs veh, DNAJC13 / RFU, GNAQ / Fold change vs veh, GNAQ / RFU, CDK5R1 / Fold change vs veh, CDK5R1 / RFU, ZRANB3 / Fold change vs veh, ZRANB3 / RFU, CUL4A / Fold change vs veh, CUL4A / RFU, CCNY / Fold change vs veh, CCNY / RFU, UFL1 / Fold change vs veh, UFL1 / RFU, COG3 / Fold change vs veh, COG3 / RFU, DIAPH2 / Fold change vs veh, DIAPH2 / RFU, SKA2 / Fold change vs veh, SKA2 / RFU, AFF3 / Fold change vs veh, AFF3 / RFU, LMF1 / Fold change vs veh, LMF1 / RFU, IPO11 / Fold change vs veh, IPO11 / RFU, DFFB / Fold change vs veh, DFFB / RFU, FOXP1 / Fold change vs veh, FOXP1 / RFU, CARD8 / Fold change vs veh, CARD8 / RFU, STRN3 / Fold change vs veh, STRN3 / RFU, ADK / Fold change vs veh, ADK / RFU, RASSF2 / Fold change vs veh, RASSF2 / RFU, WIPF1 / Fold change vs veh, WIPF1 / RFU, LARP1B / Fold change vs veh, LARP1B / RFU, RASA1 / Fold change vs veh, RASA1 / RFU, RB1 / Fold change vs veh, RB1 / RFU, PPFIA1 / Fold change vs veh, PPFIA1 / RFU, MAT2A / Fold change vs veh, MAT2A / RFU, CCT5 / Fold change vs veh, CCT5 / RFU, WDR92 / Fold change vs veh, WDR92 / RFU, CUX1 / Fold change vs veh, CUX1 / RFU, TTC7A / Fold change vs veh, TTC7A / RFU, TMEM135 / Fold change vs veh, TMEM135 / RFU, DEPTOR / Fold change vs veh, DEPTOR / RFU, CPM / Fold change vs veh, CPM / RFU, DNAJB6 / Fold change vs veh, DNAJB6 / RFU, CACNA2D3 / Fold change vs veh, CACNA2D3 / RFU, DTX4 / Fold change vs veh, DTX4 / RFU, TFCP2 / Fold change vs veh, TFCP2 / RFU, GMCL1 /// GMCL1P1 / Fold change vs veh, GMCL1 /// GMCL1P1 / RFU, AEBP2 / Fold change vs veh, AEBP2 / RFU, SNHG1 /// SNORD22 /// SNORD25 /// SNORD26 /// SNORD27 /// SNORD28 /// SNORD29 /// SNORD31 / Fold change vs veh, SNHG1 /// SNORD22 /// SNORD25 /// SNORD26 /// SNORD27 /// SNORD28 /// SNORD29 /// SNORD31 / Fold change (Aza/veh), C12orf56 (ProbeSet 11735607_a_at) / Fold change (ACY-1035/veh), C12orf56 (ProbeSet 11735607_a_at) / Fold change (Aza/veh), FGFR1OP (ProbeSet 11751329_s_at) / Fold change (ACY-1035/veh), FGFR1OP (ProbeSet 11751329_s_at) / Fold change (Aza/veh), VPS36 (ProbeSet 11739960_a_at) / Fold change (ACY-1035/veh), VPS36 (ProbeSet 11739960_a_at) / RFU SYPL1 (11715823_x_at) / Fold change /veh SYPL1 (11715823_x_at) / RFU IGFBP7 (11715501_s_at) / Fold change /veh IGFBP7 (11715501_s_at) / RFU REEP3 (11722064_at) / Fold change /veh REEP3 (11722064_at) / RFU IGLL1 (11728026_x_at) / Fold change /veh IGLL1 (11728026_x_at): dose or concentration left out as unconfirmed
Settings: ProbeSet 11716999_a_at; LIST D

Q: With `Nc1ccc(-c2cccs2)cc1NC(=O)c1ccc2c(c1)cc(C1CC1)n2CCN1CCOCC1` [ACY-1035] as the compound, how does the “Fold change vs veh, RASA1” value read?
A: 0.84
